Assay results published in patent US5491137A, “14α17α-(Propano-and 17^2 propeno) -estratrienes” (Schering Aktiengesellschaft, priority 1991, dated 1996).

Tests used:
vaginal epithelium = assay: Allen-Doisy test (vaginal smears in ovariectomized rats); type: in vivo; settings: single administration day 1, smears days 3-5, threshold = amount at which 50% of animals reach stage 3 (estrus)
Method: In the Allen-Doisy test, an evaluation of vaginal smears in ovariectomized rats is performed on days 3-5 (d3-d5) after the one-time administration on day 1 (d1 ) of the test substance. The following cycle stages are distinguished:
1=diestrus (leukocytes and nucleated epithelial cells),
2=proestrus (nucleated epithelial cells),
3=estrus (denucleated horny plaques),
4=metestrus (denucleated horny plaques, leukocytes, epithelial cells).
After oral or subcutaneous administration, estrogenically active substances result in the proliferation of the vaginal epithelium and the hornification of superficial cell layers. Regarded as a threshold value, is the amount of an estrogen at which 50% of the animals reach stage 3. Further, estrogens cause an increase of the uterus weight.

Estrogen Receptor = Estrogen Receptor Test; type: binding; settings: KF not defined in the patent

SMILES	Allen-Doisy Test p.o. [ED50] (vaginal epithelium) [μg/Tier/Tag]	Allen-Doisy Test s.c. [ED50] (vaginal epithelium)	Estrogen Receptor Test [KF] (Estrogen Receptor)
C[C@]12CC[C@@H]3c4ccc(O)cc4CC[C@H]3[C@@]13C=CC[C@]2(O)CC3 [14α,17α-(17^2 -Propeno)estra-1,3,5(10)-triene-3,17β-diol]	< 1	0,1-0,3 μg/Tier/Tag	0,4
C#C[C@]1(O)CC[C@H]2[C@@H]3CCc4cc(O)ccc4[C@H]3CC[C@@]21C [Ethinylestradiol]	3.0	0.1-0.3 μg/Tier/Tag	0.5
